# Where “and” joins values, the source holds several entries; their conditions need not be identical. Identical values can stand only once.
# What was measured:
# IOP = conditions: topical application; cited from earlier work
# [1] = test system: IOP in test eye of DB rabbits; assay: Combination dose multiple day application study: IOP lowering after topical co-administration of two formulations (second 15 minutes after first)
# [2] = test system: IOP in test eye of DB rabbits; assay: Single treatment multiple day application study: IOP lowering after topical administration of one formulation (QD, 5 days); type: in vivo, pigmented (Dutch Belted; DB) rabbits; design: Test eye IOP: unit not given here; conditions: for Drop in IOP: test eye
# From the text: The rabbits were split into three groups.
# The IOP profile following multi-day (QD, 5 days) exposure to a single formulation, in pigmented DB rabbits, is presented in FIGS. 1-26.
# [3] = Average of days 1, 3, 5, 30 min
# [4] = Average of days 1, 3, 5, 60 min
# [5] = Average of days 1, 3, 5, 90 min
# [6] = Average of days 1, 3, 5, 120 min
# [7] = Average of days 1, 3, 5, 150 min
# [8] = Average of days 1, 3, 5, 180 min
# [9] = Average of days 1, 3, 5, 240 min
# [10] = Average of days 1, 3, 5, 300 min
# [11] = Average of days 1, 3, 5, 360 min
# [12] = Average of days 1, 3, 5, 420 min
# [13] = Average of days 1, 3, 5, 480 min
# [14] = Average of days 1, 3, 5, 540 min
# [15] = Average of days 1, 3, 5, 1440 min
smiles,measurement,setting,value
"CCCCCc1cc(O)c2c(c1)OC(C)(C)[C@@H]1CCC(C)=C[C@@H]21 [THC, Delta-9-tetrahydrocannabinol]",effect on IOP,IOP,no effect on IOP
CC(C)OC(=O)CCC/C=C\C[C@@H]1[C@@H](CC[C@@H](O)CCc2ccccc2)[C@H](O)C[C@@H]1O [Latanoprost],comparison of IOP lowering of combinations with single treatments,[1],decreased the efficacy of both THC-VHS-NEC and Rhopressa® when combined
same,Test eye IOP,"[2]; Average of days 1, 3, 5, 0 min",24.6
same,Test eye IOP,[2]; [3],20.1
same,Test eye IOP,[2]; [4],19.6
same,Test eye IOP,[2]; [5],19.5
same,Test eye IOP,[2]; [6],19.7
same,Test eye IOP,[2]; [7],19.6
same,Test eye IOP,[2]; [8],20.0
same,Test eye IOP,[2]; [9],19.5
same,Test eye IOP,[2]; [10],19.7
same,Test eye IOP,[2]; [11],19.9
same,Test eye IOP,[2]; [12],21.0
same,Test eye IOP,[2]; [13],23.9
same,Test eye IOP,[2]; [14],24.8
same,Test eye IOP,[2]; [15],24.4
same,Drop in IOP,"[2]; Average of days 1, 3, 5, 0 min",0.0%
same,Drop in IOP,[2]; [3],−18.3%
same,Drop in IOP,[2]; [4],−20.3%
same,Drop in IOP,[2]; [5],−20.5%
same,Drop in IOP,[2]; [6],−19.8%
same,Drop in IOP,[2]; [7],−20.5%
same,Drop in IOP,[2]; [8],−18.7%
same,Drop in IOP,[2]; [9],−20.6%
same,Drop in IOP,[2]; [10],−21.7%
same,Drop in IOP,[2]; [11],−19.1%
same,Drop in IOP,[2]; [12],−14.5%
same,Drop in IOP,[2]; [13],−2.9%
same,Drop in IOP,[2]; [14],0.7%
same,Drop in IOP,[2]; [15],−2.2%
same,Test eye IOP,"[2]; Day 1, 0 min",25.2
same,Test eye IOP,"[2]; Day 1, 30 min",20.0
same,Test eye IOP,"[2]; Day 1, 60 min",19.6
same,Test eye IOP,"[2]; Day 1, 90 min",19.2
same,Test eye IOP,"[2]; Day 1, 120 min",19.8
same,Test eye IOP,"[2]; Day 1, 150 min",19.4
same,Test eye IOP,"[2]; Day 1, 180 min",20.2
same,Test eye IOP,"[2]; Day 1, 240 min",19.7
same,Test eye IOP,"[2]; Day 1, 300 min",19.7
same,Test eye IOP,"[2]; Day 1, 360 min",19.7
same,Test eye IOP,"[2]; Day 1, 420 min",20.9
same,Test eye IOP,"[2]; Day 1, 480 min",23.8
same,Test eye IOP,"[2]; Day 1, 540 min",25.2
same,Test eye IOP,"[2]; Day 1, 1440 min",24.4
same,Drop in IOP,"[2]; Day 1, 0 min",0.0%
same,Drop in IOP,"[2]; Day 1, 30 min",−20.5%
same,Drop in IOP,"[2]; Day 1, 60 min",−21.9%
same,Drop in IOP,"[2]; Day 1, 90 min",−23.7%
same,Drop in IOP,"[2]; Day 1, 120 min",−21.3%
same,Drop in IOP,"[2]; Day 1, 150 min",−22.9%
same,Drop in IOP,"[2]; Day 1, 180 min",−19.7%
same,Drop in IOP,"[2]; Day 1, 240 min",−21.8%
same,Drop in IOP,"[2]; Day 1, 300 min",−21.7%
same,Drop in IOP,"[2]; Day 1, 360 min",−21.7%
same,Drop in IOP,"[2]; Day 1, 420 min",−16.8%
same,Drop in IOP,"[2]; Day 1, 480 min",−5.4%
same,Drop in IOP,"[2]; Day 1, 540 min",0.3%
same,Drop in IOP,"[2]; Day 1, 1440 min",−3.0%
same,Test eye IOP,"[2]; Day 3, 0 min",24.6
same,Test eye IOP,"[2]; Day 3, 30 min",19.8
same,Test eye IOP,"[2]; Day 3, 60 min",19.5
same,Test eye IOP,"[2]; Day 3, 90 min",19.8
same,Test eye IOP,"[2]; Day 3, 120 min",19.6
same,Test eye IOP,"[2]; Day 3, 150 min",19.6
same,Test eye IOP,"[2]; Day 3, 180 min",20.0
same,Test eye IOP,"[2]; Day 3, 240 min",19.6
same,Test eye IOP,"[2]; Day 3, 360 min",19.6
same,Test eye IOP,"[2]; Day 3, 420 min",21.0
same,Test eye IOP,"[2]; Day 3, 480 min",23.7
same,Test eye IOP,"[2]; Day 3, 540 min",24.5
same,Test eye IOP,"[2]; Day 3, 1440 min",24.2
same,Drop in IOP,"[2]; Day 3, 0 min",0.0%
same,Drop in IOP,"[2]; Day 3, 30 min",−19.4%
same,Drop in IOP,"[2]; Day 3, 60 min",−20.7%
same,Drop in IOP,"[2]; Day 3, 90 min",−19.6%
same,Drop in IOP,"[2]; Day 3, 120 min",−20.3%
same,Drop in IOP,"[2]; Day 3, 150 min",−20.3%
same,Drop in IOP,"[2]; Day 3, 180 min",−18.7%
same,Drop in IOP,"[2]; Day 3, 240 min",−20.5%
same,Drop in IOP,"[2]; Day 3, 360 min",−20.3%
same,Drop in IOP,"[2]; Day 3, 420 min",−14.7%
same,Drop in IOP,"[2]; Day 3, 480 min",−3.6%
same,Drop in IOP,"[2]; Day 3, 540 min",−0.4%
same,Drop in IOP,"[2]; Day 3, 1440 min",−3.6%
same,Test eye IOP,"[2]; Day 5, 0 min",24.1
same,Test eye IOP,"[2]; Day 5, 30 min",20.4
same,Test eye IOP,"[2]; Day 5, 60 min",19.7
same,Test eye IOP,"[2]; Day 5, 90 min",19.7
same,Test eye IOP,"[2]; Day 5, 120 min",19.8
same,Test eye IOP,"[2]; Day 5, 150 min",19.7
same,Test eye IOP,"[2]; Day 5, 180 min",19.8
same,Test eye IOP,"[2]; Day 5, 240 min",19.3
same,Test eye IOP,"[2]; Day 5, 360 min",20.3
same,Test eye IOP,"[2]; Day 5, 420 min",21.2
same,Test eye IOP,"[2]; Day 5, 480 min",24.1
same,Test eye IOP,"[2]; Day 5, 540 min",24.6
same,Test eye IOP,"[2]; Day 5, 1440 min",24.7
same,Drop in IOP,"[2]; Day 5, 0 min",0.0%
same,Drop in IOP,"[2]; Day 5, 30 min",−15.2%
same,Drop in IOP,"[2]; Day 5, 60 min",−18.2%
same,Drop in IOP,"[2]; Day 5, 90 min",−18.2%
same,Drop in IOP,"[2]; Day 5, 120 min",−17.8%
same,Drop in IOP,"[2]; Day 5, 150 min",−18.2%
same,Drop in IOP,"[2]; Day 5, 180 min",−17.5%
same,Drop in IOP,"[2]; Day 5, 240 min",−19.6%
same,Drop in IOP,"[2]; Day 5, 360 min",−15.4%
same,Drop in IOP,"[2]; Day 5, 420 min",−12.0%
same,Drop in IOP,"[2]; Day 5, 480 min",0.3%
same,Drop in IOP,"[2]; Day 5, 540 min",2.1%
same,Drop in IOP,"[2]; Day 5, 1440 min",0.0%
same,IOP returned to baseline (time),[2]; single formulation,≤ 480 min
same,average max drop in IOP,"[2]; single formulation, QD, 5 days",about 21.3+2.1%
same,Max IOP drop (%),"[2]; single formulation, Day 1",−23.7%
same,Max IOP drop (mmHg),"[2]; single formulation, Day 1",6.0 mmHg and 6 mmHg
same,Time of max IOP drop (%),"[2]; single formulation, Day 1",90 min
same,Time of max IOP drop (mmHg),"[2]; single formulation, Day 1",90 min
same,Max IOP drop (%),"[2]; single formulation, Day 3",−20.7%
same,Max IOP drop (mmHg),"[2]; single formulation, Day 3",5.1 mmHg
same,Time of max IOP drop (%),"[2]; single formulation, Day 3",60 min
same,Time of max IOP drop (mmHg),"[2]; single formulation, Day 3",60 min
same,Max IOP drop (%),"[2]; single formulation, Day 5",−19.6%
same,Max IOP drop (mmHg),"[2]; single formulation, Day 5",4.7 mmHg
same,Time of max IOP drop (%),"[2]; single formulation, Day 5",240 min
same,Time of max IOP drop (mmHg),"[2]; single formulation, Day 5",240 min
same,time to max drop in IOP,"[2]; single formulation, day 1",60 min
same,time to max drop in IOP,"[2]; single formulation, day 3",90 min
same,time to max drop in IOP,"[2]; single formulation, day 5",240 min
same,maintained average drop in IOP,"[2]; single formulation, from 30 to 420 mins",19.4 ± 1.9%
